Reference: article PMC5702897 (CPT: Pharmacometrics & Systems Pharmacology, 2017)
Where two headings read alike, the source gives them in different places.

Assays:
[1] = 40 mg single dose, healthy volunteers, cited from earlier work
[2] = 15 to 450 mg given in fasted state; cited from earlier work
[3] = weakly basic compound; cited from earlier work

Absorption rate constant (Ka), typical value (PPI=0, Fasted): 2.63 h⁻¹
Absorption rate constant (Ka), typical value (PPI=0, Fed): 0.297 h⁻¹
Absorption rate constant (Ka), typical value (PPI=1, Fasted): 1.361 h⁻¹
Absorption rate constant (Ka), typical value (PPI=1, Fed): 0.154 h⁻¹
Ka as percent of the fasted state value (both PPI and food present): about 6%
Absorption lag time (Tlag), typical value (healthy volunteers, 40 mg): 0.47 H
Central volume (Vc/F), typical value (healthy volunteers, 40 mg): 304.9 L
Peripheral volume (Vp/F), typical value (healthy volunteers, 40 mg): 175.9 L
BSV of absorption lag time (Tlag) (human, in vivo): 3.00%
BSV of central volume (Vc/F) (human, in vivo): 37.7%
BSV of absorption rate constant (Ka) (one value for all four states): 51.9%
decrease in Ka with PPI (regardless of food): ~50%
Compound: CS(=O)(=O)N1CCN(Cc2cc3nc(-c4cccc5[nH]ncc45)nc(N4CCOCC4)c3s2)CC1 [pictilisib, Pictilisib]
median AUCinf ([1]; fasted with PPI (rabeprazole)): 906 ng·h/mL
median AUCinf ([1]; fasted): 1,760 ng/mL*h
median AUCinf ([1]; fed (high-fat food)): 2,070 ng/mL*h
median AUCinf ([1]; fed with PPI (rabeprazole)): 1,180 ng/mL*h
dose proportionality of PK [2]: dose‐proportionality
pKa (first value) [3]: 4.2
